Measurements published in PMC11995724, “Antibiotic target discovery by integrated phenotypic and activity-based profiling of electrophilic fragments” (Cell chemical biology, 2025).

Test: in vitro
Details: human, hek293t cells

| SMILES | viability at 48 h, 25 µM |
| --- | --- |
| CC(Cl)C(=O)NC(C)c1ccc2c(c1)CCCC2 (stereo not shown) [6-A07, 2-chloro-N-[1-(5,6,7,8-tetrahydronaphthalen-2-yl)ethyl]propanamide] | 93.1% |
| C=CC(=O)N1CCOC(CNC(=O)NC)C1 (stereo not shown) [3-A18, 3-methyl-1-{[4-(prop-2-enoyl)morpholin-2-yl]methyl}urea] | 93.3% |
| CC(Cl)C(=O)N1CCOC(c2ccc(Cl)s2)C1 (stereo not shown) [6-N07, 2-chloro-1-[2-(5-chlorothiophen-2-yl)morpholin-4-yl]propan-1-one] | 111% |
| CC(Cl)C(=O)NC(C)c1ccn(C)n1 (stereo not shown) [6-B16, 2-chloro-N-[1-(1-methyl-1H-pyrazol-3-yl)ethyl]propanamide] | 103% |
| CC(Cl)C(=O)Nc1sc2c(c1C#N)CCCCC2 (stereo not shown) [5-B20, 2-chloro-N-{3-cyano-4H,5H,6H,7H,8H-cyclohepta[b]thiophen-2-yl}propanamide] | 60% |
| O=C(CCl)N1c2ccccc2SCC1c1ccccc1 (stereo not shown) [4-M18, 2-chloro-1-(3-phenyl-3,4-dihydro-2H-1,4-benzothiazin-4-yl)ethan-1-one] | -0.0405% |
| COc1ccc(C=C(C#N)C(=O)Nc2ccccc2C)cc1O [8-P15, 2-cyano-3-(3-hydroxy-4-methoxyphenyl)-N-(2-methylphenyl)prop-2-enamide] | 120% |
| CC(Cl)C(=O)N1CCC(c2nc(N(C)C)no2)CC1 (stereo not shown) [6-F05, 2-chloro-1-{4-[3-(dimethylamino)-1,2,4-oxadiazol-5-yl]piperidin-1-yl}propan-1-one] | 108% |
| C=CC(=O)N1CCC(C(=O)NC(C)(C)c2ccc(F)c(F)c2)CC1 [1-L04, N-[2-(3,4-difluorophenyl)propan-2-yl]-1-(prop-2-enoyl)piperidine-4-carboxamide] | 91.1% |
| COc1ccc(C=C(C#N)C(=O)Nc2cccc([N+](=O)[O-])c2)cc1 [8-I03, 2-cyano-3-(4-methoxyphenyl)-N-(3-nitrophenyl)prop-2-enamide] | 105% |
| C=CC(=O)N1CCC(C(=O)N[C@H]2CC[C@@H]2O)(c2ccccc2)CC1 (racemic) [3-G08, rac-N-[(1R,2R)-2-hydroxycyclobutyl]-4-phenyl-1-(prop-2-enoyl)piperidine-4-carboxamide] | 104% |
| O=C(CCl)NC(Cn1cncn1)c1ccccc1 (stereo not shown) [7-N03, 2-chloro-N-[1-phenyl-2-(1H-1,2,4-triazol-1-yl)ethyl]acetamide] | 0.644% |
| C=CC(=O)NCCn1nc(C)cc1C [3-M13, N-[2-(3,5-dimethyl-1H-pyrazol-1-yl)ethyl]prop-2-enamide] | 56.9% |
| C=CC(=O)N1CCC(n2nc(C)nc2O)CC1 [3-P21, 1-[4-(5-hydroxy-3-methyl-1H-1,2,4-triazol-1-yl)piperidin-1-yl]prop-2-en-1-one] | 49.8% |
| C=CC(=O)NCc1csc2nccn12 [3-J13, N-({imidazo[2,1-b][1,3]thiazol-3-yl}methyl)prop-2-enamide] | 76.8% |
| C=CC(=O)N1CCOC2(CCCCCC2)C1 [1-L08, 1-{1-oxa-4-azaspiro[5.6]dodecan-4-yl}prop-2-en-1-one] | 73.9% |
| CC(Cl)C(=O)N1CCC(Cc2ccccc2)CC1 (stereo not shown) [5-K21, 1-(4-benzylpiperidin-1-yl)-2-chloropropan-1-one] | 86.2% |
| C=CC(=O)N1CCC(C(=O)NC2CCCc3nc(C)ncc32)CC1 (stereo not shown) [3-I17, N-(2-methyl-5,6,7,8-tetrahydroquinazolin-5-yl)-1-(prop-2-enoyl)piperidine-4-carboxamide] | 32% |
| C=CC(=O)N1CCCC(c2nc(N(C)C)no2)C1 (stereo not shown) [3-A13, 1-{3-[3-(dimethylamino)-1,2,4-oxadiazol-5-yl]piperidin-1-yl}prop-2-en-1-one] | 29.9% |
| O=C(CCl)c1c[nH]c2ccccc12 [10-B05, 2-chloro-1-(1H-indol-3-yl)ethan-1-one] | 111% |
| COc1ccc(NC(=O)C(C#N)=Cc2cccc(O)c2)cc1Cl [9-C08, N-(3-chloro-4-methoxyphenyl)-2-cyano-3-(3-hydroxyphenyl)prop-2-enamide] | 102% |
| C=CC(=O)N[C@H]1CCCC[C@H]1n1cc(C(C)(C)O)nn1 [1-P07, N-[(1S,2R)-2-[4-(2-hydroxypropan-2-yl)-1H-1,2,3-triazol-1-yl]cyclohexyl]prop-2-enamide] | 128% |
| C=CC(=O)N1CCn2cccc2C1c1ccncc1 (stereo not shown) [3-M03, 1-[1-(pyridin-4-yl)-1H,2H,3H,4H-pyrrolo[1,2-a]pyrazin-2-yl]prop-2-en-1-one] | 45.2% |
| Cc1nnnn1-c1ccc(F)c(NC(=O)CCl)c1 [6-E13, 2-chloro-N-[2-fluoro-5-(5-methyl-1H-1,2,3,4-tetrazol-1-yl)phenyl]acetamide] | 1.24% |
| Cc1noc(C)c1CN(C(=O)CCl)C1CC1 [7-B05, 2-chloro-N-cyclopropyl-N-[(3,5-dimethyl-1,2-oxazol-4-yl)methyl]acetamide] | 0.0855% |
| CCCCNC(=O)C(C#N)=Cc1ccc(F)cc1 [9-P13, N-butyl-2-cyano-3-(4-fluorophenyl)prop-2-enamide] | 124% |

| SMILES | viability at 48 h, 25 µM |
| --- | --- |
| C=CC(=O)NCc1cnc(CC(C)C)s1 [1-J10, N-{[2-(2-methylpropyl)-1,3-thiazol-5-yl]methyl}prop-2-enamide] | 84.2% |
| C=CC(=O)NCCC(=O)N1CCC(O)(c2c(F)cccc2F)CC1 [2-B11, N-{3-[4-(2,6-difluorophenyl)-4-hydroxypiperidin-1-yl]-3-oxopropyl}prop-2-enamide] | 60% |
| CC1CSc2ccccc2N(C(=O)CCl)C1 (stereo not shown) [5-H07, 2-chloro-1-(3-methyl-2,3,4,5-tetrahydro-1,5-benzothiazepin-5-yl)ethan-1-one] | 0.825% |
| NC(=O)c1ccc(NC(=O)CCl)cc1 [4-P04, 4-(2-chloroacetamido)benzamide] | 0.712% |
| C=CC(=O)NCc1ccc(S(=O)(=O)NC2CC2)cc1 [2-P19, N-{[4-(cyclopropylsulfamoyl)phenyl]methyl}prop-2-enamide] | 62.3% |
| C=CC(=O)Nc1cc(S(=O)(=O)N(C)C)cc(C)c1C [1-K11, N-[5-(dimethylsulfamoyl)-2,3-dimethylphenyl]prop-2-enamide] | 71.3% |
| C=CC(=O)N1CCOCC2(COCCN2C)C1 (stereo not shown) [3-J14, 1-{1-methyl-4,8-dioxa-1,11-diazaspiro[5.6]dodecan-11-yl}prop-2-en-1-one] | 96% |
| C=CC(=O)N(C)CC(=O)Nc1ccc(N2C[C@@H](C)O[C@@H](C)C2)cc1 [3-H08, N-[({4-[(2R,6S)-2,6-dimethylmorpholin-4-yl]phenyl}carbamoyl)methyl]-N-methylprop-2-enamide] | 94.9% |
| Cc1nc2ccccc2n(CCCNC(=O)C(C)Cl)c1=O (stereo not shown) [7-O21, 2-chloro-N-[3-(3-methyl-2-oxo-1,2-dihydroquinoxalin-1-yl)propyl]propanamide] | 59.4% |
| N#CC(=Cc1ccc2c(c1)OCCO2)C(=O)Nc1nccs1 [8-B03, 2-cyano-3-(2,3-dihydro-1,4-benzodioxin-6-yl)-N-(1,3-thiazol-2-yl)prop-2-enamide] | 115% |
| Nc1c(C(=O)CCl)c(=O)[nH]c(=O)n1Cc1ccccc1 [10-J18, 6-amino-1-benzyl-5-(2-chloroacetyl)-1,2,3,4-tetrahydropyrimidine-2,4-dione] | 88.2% |
| Cc1nn(C)c(C)c1C=C(C#N)C(=O)Nc1cccc(Cl)c1C [9-M20, N-(3-chloro-2-methylphenyl)-2-cyano-3-(1,3,5-trimethyl-1H-pyrazol-4-yl)prop-2-enamide] | 111% |
| CC(C1CC1)N(C(=O)CCl)C1CC1 (stereo not shown) [5-F12, 2-chloro-N-cyclopropyl-N-(1-cyclopropylethyl)acetamide] | 1.06% |
| O=C(CCl)Nc1ccccc1F [4-M16, 2-chloro-N-(2-fluorophenyl)acetamide] | 0.723% |
| Cc1nn(-c2ccccc2)c(C)c1C=C(C#N)C(=O)Nc1nccs1 [9-E07, 2-cyano-3-(3,5-dimethyl-1-phenyl-1H-pyrazol-4-yl)-N-(1,3-thiazol-2-yl)prop-2-enamide] | 119% |
| C=CC(=O)N(Cc1c(C)cccc1C)C1CCc2nc(C)nn2C1 (stereo not shown) [1-B11, N-[(2,6-dimethylphenyl)methyl]-N-{2-methyl-5H,6H,7H,8H-[1,2,4]triazolo[1,5-a]pyridin-6-yl}prop-2-enamide] | 114% |
| C=CC(=O)N1CCOC(c2nc(C)cs2)C1 (stereo not shown) [3-A17, 1-[2-(4-methyl-1,3-thiazol-2-yl)morpholin-4-yl]prop-2-en-1-one] | 26.2% |
| C=CC(=O)NC(C1CCC1)C1CCOC1 (stereo not shown) [1-O22, N-[cyclobutyl(oxolan-3-yl)methyl]prop-2-enamide] | 113% |
| O=C(CCl)NCC1(c2ccccc2)CCOCC1 [6-I07, 2-chloro-N-[(4-phenyloxan-4-yl)methyl]acetamide] | 89.3% |
| CC(NC(=O)CCl)c1nnc(-c2ccccc2F)s1 (stereo not shown) [7-L21, 2-chloro-N-{1-[5-(2-fluorophenyl)-1,3,4-thiadiazol-2-yl]ethyl}acetamide] | 0.564% |
| C=CC(=O)NC1CC(C)Cc2cc(OC)ccc21 (stereo not shown) [3-L17, N-(6-methoxy-3-methyl-1,2,3,4-tetrahydronaphthalen-1-yl)prop-2-enamide] | 61.6% |
| C=CC(=O)NCc1ccno1 [1-O07, N-[(1,2-oxazol-5-yl)methyl]prop-2-enamide] | 68.4% |
| COc1cc(C=C(C#N)C(=O)Nc2ccc(Cl)cc2)cc(OC)c1 [8-K16, N-(4-chlorophenyl)-2-cyano-3-(3,5-dimethoxyphenyl)prop-2-enamide] | 81.7% |
| CN(C(=O)c1ccccc1)C1CC2CCC(C1)N2C(=O)CCl (stereo not shown) [5-J03, N-[8-(2-chloroacetyl)-8-azabicyclo[3.2.1]octan-3-yl]-N-methylbenzamide] | 1.62% |
| C=CC(=O)N1CCC(C(=O)NCc2ccc(-c3n[nH]c(C)n3)cc2)CC1 [3-M21, N-{[4-(5-methyl-1H-1,2,4-triazol-3-yl)phenyl]methyl}-1-(prop-2-enoyl)piperidine-4-carboxamide] | 56.1% |
| CC(C)CN(C(=O)CCl)c1cnn(-c2ccccn2)c1 [5-A12, 2-chloro-N-(2-methylpropyl)-N-[1-(pyridin-2-yl)-1H-pyrazol-4-yl]acetamide] | 0.323% |
